Data published in patent publication US20180252703A1, “AN IN VITRO 3D CELL CULTURE MODEL-BASED TUMOR RELAPSE ASSAY” (INSPHERO AG, priority 2015, published 2018).

What was measured:
[1] = system: HCT-116 3D InSight colorectal cancer microtissues; experiment: Dose response of HCT-116 3D microtissues by size (area) after 5 days of compound exposure; assay type: cell-based; conditions: Homo sapiens, HCT-116, 120 h; tissue size (area), after 5 days exposure
Protocol: After microtissue formation, spheroids were transferred into GravityTRAP™ plates for further experiments. Medium was refreshed at days 4, 6 and 8 post-transfer to assay plates.
From the stock solutions, two-fold serial dilutions in DMSO were prepared for each compound, leading to 200× concentrated working dilutions.
(§1) Microtissues were treated in GravityTRAP™ plates with the indicated compound dilutions (n=4), leading to 0.5% DMSO in the cell culture medium. As a control, microtissues were exposed to 0.5% DMSO without a compound. Upon medium exchange, compounds were re-added where indicated. The treatment was performed over 10 days, however, for 2 tissues per group, the compound exposure was discontinued after 5 days and they were thereafter incubated in medium without compound (n=2).
IC20 and IC50 values were determined by plotting the tissue size over the compound concentration after incubation over 5 days.
(§2) GravityTRAP™ plates containing treated microtissues were scanned with Cell^3iMager (Dainippon, Japan) with a resolution of 4800 dpi. Microtissue size was assessed with the software provided by the manufacturer.
(§3) Air bubbles interfering with the size analysis were excluded manually, either by adjusting the image section to be analyzed by the software or by cropping the area designated to a microtissue after size measurement. The acquired data was normalized to the non-treated control (S=size of microtissue).
Dose response based on the size (area) of the tumor microtissue were used to define IC20, IC50 and the lowest maximum response concentration [nM].

[2] = system: HCT-116 3D InSight colorectal cancer microtissues; experiment: Tumor relapse assay: 5-day pulsed versus 10-day continuous treatment of HCT-116 microtissues, read by size and intra-tissue ATP, relapse index ReI; assay type: cell-based; conditions: for ReI at IC50, times higher than at IC20: ReI at IC50 relative to ReI at IC20; for tumor relapse index (ReI): 5-day pulsed treatment, growth profiles over 10 days; for growth after the 5-day treatment: at the respective IC50 concentration; for tumor re-growth after removing the compound after a 5-day treatment: lower drug concentrations: 6 nM taxol, 50 nM doxorubicin, 125 nM staurosporine, size or intra-tissue ATP content; for phenotype of re-growth after drug removal: phenotypic analysis, taxol at low concentrations (6 nM)
Protocol: as §1, §2, §3
In order to determine the number of viable cells per microtissue, the amount of intracellular ATP as a measure for metabolic activity was determined by using CellTiter-Glo® Luminescent Cell Viability Assay (Promega; Madison, USA). The assay was performed according to the manufacturer's protocol with slight adaptations specific to microtissues. In brief, supernatant was removed and lysis of microtissues initiated by adding 40 μl diluted CellTiter-Glo Reagent (1:2 in PBS). The cell lysis was enhanced by pipetting up and down prior to transfer into an opaque white assay plate. […] The acquired data was normalized to the non-treated control:
To generate the tumor relapse index the growth profiles of the pulsed treatment groups were compared to the growth curves of the vehicle-only treated microtissues and the lowest maximum concentration treated group (FIG. 7). The impact of the pulsed drug treatment was set relative to the control and the maximum response of the respective drug (FIGS. 5 and 6).
To determine a tumor relapse index, the sizes (e.g., diameter, volume or area of an optical cross section) of at least one 3-dimensional cell culture or tissue in the continuous treatment group, the pulsed treatment group and the untreated control group are determined at a given point of time (endpoint measurement).
Then, (i) the difference (e.g., d2) between the size of at least one 3-dimensional cell culture or tissue in the continuous treatment group and at least one 3-dimensional cell culture or tissue in the pulsed treatment group is formed, and
(ii) the difference (e.g., d1) between the size of at least one 3-dimensional cell culture or tissue in the pulsed treatment group and at least one 3-dimensional cell culture or tissue in the untreated control group is formed.
Then, a quotient is formed out of the two differences (e.g., d1/d^2) to deliver a tumor relapse index. Such tumor relapse indices can be determined for different inhibitory concentration of the respective anti-cancer agents.

Row | IC50 [1] [nM] | ReI at IC50, times higher than at IC20 [2] [times] | Structure (SMILES) | IC20 [1] [nM] | capacity to re-grow after drug removal ([2]; 50 nM treated group compared with 100 nM treated group) | tumor relapse index (ReI) ([2]; at IC20 concentration) | tumor relapse index (ReI) ([2]; at IC50 concentration) | growth after the 5-day treatment [2] | tumor re-growth after removing the compound after a 5-day treatment [2] | phenotype of re-growth after drug removal [2] | re-growth compared to continuous treated counterparts ([2]; 125 nM and 500 nM, drug removed after 5 days, size and intra-tissue ATP) | tumor removal ([2]; high concentrations, after 5 days)
1 | 200 | 6.6 | COc1cccc2c1C(=O)c1c(O)c3c(c(O)c1C2=O)C[C@@](O)(C(=O)CO)C[C@@H]3O[C@H]1C[C@H](N)[C@H](O)[C@H](C)O1 [doxorubicin] | 50 | stronger capacity to re-grow | 0.32 | 2.1 | the tumor was still able to grow | tumor re-growth was observed | regrew symmetrically |  | 
2 |  |  | CN[C@@H]1C[C@H]2O[C@@](C)([C@@H]1OC)n1c3ccccc3c3c4c(c5c6ccccc6n2c5c31)C(=O)NC4 [staurosporine] | 31.2 |  |  | 0.56 | growth occurred even in a similar extent as in the non-treated control culture | tumor re-growth was observed | regrew symmetrically | re-grew substantially | 
3 | 12.5 | 26 | CC(=O)O[C@H]1C(=O)[C@@]2(C)[C@H]([C@H](OC(=O)c3ccccc3)[C@]3(O)C[C@H](OC(=O)[C@H](O)[C@@H](NC(=O)c4ccccc4)c4ccccc4)C(C)=C1C3(C)C)[C@]1(OC(C)=O)CO[C@@H]1C[C@@H]2O [taxol] | 6.25 |  | 0.59 | 15.3 | hardly any growth could be observed | tumor re-growth was observed | regrew side-specific |  | nearly complete tumor removal
